Source: ChEMBL document CHEMBL1153078, “Design and synthesis of acetamido tri- and tetra-hydroxyazepanes: potent and selective beta-N-acetylhexosaminidase inhibitors” (Bioorg Med Chem, 2009)
Active and inactive are the calls of the source. The rule behind the calls is not given here.

How the values were obtained:
Aspergillus niger = assay: Inhibition of Aspergillus niger amyloglucosidase at 1 mM
[1] = target: Beta-galactosidase (Escherichia coli) (UniProt Q8VNN2); assay: Inhibition of Escherichia coli beta-galactosidase at 1 mM
Sequence of Beta-galactosidase (Escherichia coli) (Q8VNN2 whole entry, looked up): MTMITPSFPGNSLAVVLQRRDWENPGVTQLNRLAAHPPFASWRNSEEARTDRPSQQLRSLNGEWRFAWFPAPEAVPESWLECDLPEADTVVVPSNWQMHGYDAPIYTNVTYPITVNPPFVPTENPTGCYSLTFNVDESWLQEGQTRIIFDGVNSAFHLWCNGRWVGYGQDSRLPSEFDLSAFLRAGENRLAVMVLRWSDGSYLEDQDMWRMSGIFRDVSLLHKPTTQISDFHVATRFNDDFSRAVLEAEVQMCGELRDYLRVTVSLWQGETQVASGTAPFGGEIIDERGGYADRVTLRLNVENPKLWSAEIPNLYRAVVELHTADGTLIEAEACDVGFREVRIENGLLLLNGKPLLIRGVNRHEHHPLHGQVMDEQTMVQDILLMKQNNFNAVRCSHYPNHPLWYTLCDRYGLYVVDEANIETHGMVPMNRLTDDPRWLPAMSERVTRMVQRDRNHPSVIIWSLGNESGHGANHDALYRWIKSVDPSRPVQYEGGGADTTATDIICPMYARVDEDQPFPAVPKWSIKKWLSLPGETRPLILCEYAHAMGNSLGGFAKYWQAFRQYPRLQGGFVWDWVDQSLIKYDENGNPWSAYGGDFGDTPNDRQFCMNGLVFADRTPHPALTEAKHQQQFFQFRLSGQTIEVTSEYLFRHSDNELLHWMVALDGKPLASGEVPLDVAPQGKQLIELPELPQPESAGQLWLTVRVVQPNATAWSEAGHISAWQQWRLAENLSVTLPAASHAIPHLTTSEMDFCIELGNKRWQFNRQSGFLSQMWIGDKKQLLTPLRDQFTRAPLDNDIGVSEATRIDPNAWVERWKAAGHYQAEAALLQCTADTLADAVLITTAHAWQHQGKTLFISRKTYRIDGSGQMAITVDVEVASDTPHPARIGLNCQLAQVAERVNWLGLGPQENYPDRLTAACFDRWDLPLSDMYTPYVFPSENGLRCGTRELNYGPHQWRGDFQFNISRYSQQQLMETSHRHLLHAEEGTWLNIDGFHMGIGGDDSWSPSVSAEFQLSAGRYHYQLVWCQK

[2] = target: T1, Tissue alpha-L-fucosidase (Bos taurus) (UniProt Q2KIM0); assay: Inhibition of bovine epididymis alpha-L-fucosidase at 1 mM
T1 sequence (whole entry): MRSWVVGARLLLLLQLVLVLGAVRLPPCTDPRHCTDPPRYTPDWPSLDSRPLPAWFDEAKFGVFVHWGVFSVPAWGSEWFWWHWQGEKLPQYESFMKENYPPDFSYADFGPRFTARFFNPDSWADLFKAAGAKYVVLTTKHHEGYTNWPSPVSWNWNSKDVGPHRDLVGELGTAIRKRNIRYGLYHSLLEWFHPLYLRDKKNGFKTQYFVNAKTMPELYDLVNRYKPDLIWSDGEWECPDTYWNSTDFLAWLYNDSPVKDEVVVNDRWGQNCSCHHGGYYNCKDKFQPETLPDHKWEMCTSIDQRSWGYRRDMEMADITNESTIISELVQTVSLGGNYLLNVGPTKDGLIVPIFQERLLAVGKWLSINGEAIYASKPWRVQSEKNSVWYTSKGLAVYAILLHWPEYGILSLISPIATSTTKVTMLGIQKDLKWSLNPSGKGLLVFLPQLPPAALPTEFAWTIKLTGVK

Oryza sativa = assay: Inhibition of rice alpha-glucosidase at 1 mM
Saccharomyces cerevisiae = assay: Inhibition of yeast alpha-glucosidase at 1 mM
Canavalia ensiformis [3] = assay: Inhibition of jack bean alpha-mannosidase at 1 mM
Prunus dulcis = assay: Inhibition of almond beta-glucosidase at 1 mM
Canavalia ensiformis [4] = assay: Inhibition of jack bean beta-N-acetylglucosaminidase at 1 mM
[5] = target: T2, Beta-galactosidase (Aspergillus oryzae) (UniProt Q2U7N3); assay: Inhibition of Aspergillus oryzea beta-galactosidase at 1 mM
T2 sequence (whole entry): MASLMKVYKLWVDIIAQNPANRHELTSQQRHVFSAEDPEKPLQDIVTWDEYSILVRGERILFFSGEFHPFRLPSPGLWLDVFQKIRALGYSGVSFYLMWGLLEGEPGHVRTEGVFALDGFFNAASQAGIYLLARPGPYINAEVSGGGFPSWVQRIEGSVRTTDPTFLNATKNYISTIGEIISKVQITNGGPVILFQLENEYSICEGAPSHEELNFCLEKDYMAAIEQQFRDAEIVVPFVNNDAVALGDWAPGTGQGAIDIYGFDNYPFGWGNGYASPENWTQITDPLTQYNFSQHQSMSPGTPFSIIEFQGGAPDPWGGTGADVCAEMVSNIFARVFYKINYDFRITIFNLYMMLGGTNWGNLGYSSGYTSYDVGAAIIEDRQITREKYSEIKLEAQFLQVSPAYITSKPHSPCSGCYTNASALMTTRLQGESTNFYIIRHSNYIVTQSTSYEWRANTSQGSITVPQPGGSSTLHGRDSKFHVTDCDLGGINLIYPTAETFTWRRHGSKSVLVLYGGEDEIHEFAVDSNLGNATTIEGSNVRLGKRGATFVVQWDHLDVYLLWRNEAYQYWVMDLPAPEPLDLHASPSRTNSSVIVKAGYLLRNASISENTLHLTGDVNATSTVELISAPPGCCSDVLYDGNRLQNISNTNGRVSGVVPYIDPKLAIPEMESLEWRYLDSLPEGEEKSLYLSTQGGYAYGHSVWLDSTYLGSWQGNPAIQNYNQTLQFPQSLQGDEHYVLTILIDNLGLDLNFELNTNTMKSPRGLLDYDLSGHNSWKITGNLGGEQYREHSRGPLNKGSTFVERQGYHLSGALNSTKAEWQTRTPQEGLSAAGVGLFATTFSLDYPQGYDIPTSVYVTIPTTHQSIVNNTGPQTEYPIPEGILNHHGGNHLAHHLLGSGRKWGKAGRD

Bos taurus [6] = organism: Bos taurus; assay: Inhibition of bovine liver beta-N-acetylglucosaminidase at 1 mM
[7] = Inhibition of jack bean beta-N-acetylglucosaminidase; design: species or system Canavalia ensiformis
Helix pomatia = assay: Inhibition of snail beta-mannosidase at 1 mM
[8] = target: Alpha-galactosidase (Coffea arabica) (UniProt Q42656); assay: Inhibition of coffee bean alpha-galactosidase at 1 mM
Sequence of Alpha-galactosidase (Coffea arabica) (Q42656 16-378 limits assumed): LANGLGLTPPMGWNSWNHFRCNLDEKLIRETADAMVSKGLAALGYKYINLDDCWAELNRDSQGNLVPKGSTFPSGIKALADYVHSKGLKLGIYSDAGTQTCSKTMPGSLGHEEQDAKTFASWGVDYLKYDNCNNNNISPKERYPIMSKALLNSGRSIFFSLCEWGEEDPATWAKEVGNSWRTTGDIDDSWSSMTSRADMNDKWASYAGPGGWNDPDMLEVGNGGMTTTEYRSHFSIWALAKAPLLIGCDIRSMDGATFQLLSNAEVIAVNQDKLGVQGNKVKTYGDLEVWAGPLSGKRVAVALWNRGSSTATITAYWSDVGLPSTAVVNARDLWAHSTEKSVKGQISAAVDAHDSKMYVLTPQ

Aspergillus oryzae = assay: Inhibition of Aspergillus oryzea beta-xylosidase at 1 mM
[9] = Inhibition of bovine liver beta-N-acetylglucosaminidase; design: species or system Bos taurus
Canavalia ensiformis [10] = assay: Inhibition of jack bean beta-N-acetylglucosaminidase at 240 uM
Bos taurus [11] = organism: Bos taurus; assay: Inhibition of bovine liver beta-N-acetylglucosaminidase at 240 uM

Row | SMILES | inhibition (Aspergillus niger) | inhibition [1] | inhibition [2] | inhibition (Oryza sativa) | inhibition (Saccharomyces cerevisiae) | inhibition (Canavalia ensiformis [3]) | inhibition (Prunus dulcis) | inhibition (Canavalia ensiformis [4]) [%] | inhibition [5] | inhibition (Bos taurus [6]) [%] | Ki [7] [nM] | inhibition (Helix pomatia) | inhibition [8] | inhibition (Aspergillus oryzae) | Ki [9] [nM] | inhibition (Canavalia ensiformis [10]) [%] | inhibition (Bos taurus [11]) [%]
1 | CC(=O)N[C@H]1CN[C@H](CO)[C@@H](O)[C@H](O)[C@@H]1O | inactive | inactive | inactive | inactive | inactive | inactive | inactive | 88 | inactive | 74 | 30000 | inactive | inactive | inactive |  |  | 
2 | CC(=O)N[C@@H]1[C@@H](O)[C@H](O)[C@@H](CO)NC[C@H]1O | inactive | inactive | inactive | inactive | inactive | 25% | inactive | 98 | inactive | 99 | 500 | inactive | inactive | inactive | 600 |  | 
3 | CC(=O)N[C@@H]1CNC[C@H](O)[C@@H](O)[C@@H]1O | inactive | inactive | inactive | inactive | inactive | inactive | inactive | 93 | inactive | 68 |  | inactive | inactive | inactive |  |  | 
4 | CC(=O)N[C@H]1CNC[C@H](O)[C@@H](O)[C@@H]1O | 19% | inactive | 28% | inactive | inactive | inactive | inactive | 99 | inactive | 99 | 400 | inactive | inactive | inactive | 700 | 22 | 22
